How the values were obtained:
[1] = biological target: T1, Peroxisome proliferator-activated receptor alpha (Homo sapiens, UniProt Q07869); test: Agonist activity at GAL4-tagged PPARalpha ligand-binding domain (unknown origin) expressed in HEK293T cells incubated for 16 to 19 hrs by beta-lactamase reporter gene assay; type: cell-based, HEK-293T
T1 sequence (Q07869 whole entry): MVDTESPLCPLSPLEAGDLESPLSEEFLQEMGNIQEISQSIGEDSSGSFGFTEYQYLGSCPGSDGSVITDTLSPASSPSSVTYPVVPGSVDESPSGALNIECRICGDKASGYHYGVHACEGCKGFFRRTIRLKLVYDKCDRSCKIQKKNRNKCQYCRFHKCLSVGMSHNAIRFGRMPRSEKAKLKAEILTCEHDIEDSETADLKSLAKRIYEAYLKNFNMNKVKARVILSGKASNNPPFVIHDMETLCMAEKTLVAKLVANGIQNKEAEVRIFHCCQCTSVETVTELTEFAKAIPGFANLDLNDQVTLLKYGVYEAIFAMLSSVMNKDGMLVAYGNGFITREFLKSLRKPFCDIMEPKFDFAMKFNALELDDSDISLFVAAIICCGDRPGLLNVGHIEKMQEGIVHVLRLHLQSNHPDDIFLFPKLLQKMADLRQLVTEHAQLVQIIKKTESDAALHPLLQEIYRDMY

[2] = biological target: T2, Peroxisome proliferator-activated receptor gamma (Homo sapiens, UniProt P37231); test: Agonist activity at GAL4-tagged PPARgamma (unknown origin)
T2 sequence (P37231 whole entry): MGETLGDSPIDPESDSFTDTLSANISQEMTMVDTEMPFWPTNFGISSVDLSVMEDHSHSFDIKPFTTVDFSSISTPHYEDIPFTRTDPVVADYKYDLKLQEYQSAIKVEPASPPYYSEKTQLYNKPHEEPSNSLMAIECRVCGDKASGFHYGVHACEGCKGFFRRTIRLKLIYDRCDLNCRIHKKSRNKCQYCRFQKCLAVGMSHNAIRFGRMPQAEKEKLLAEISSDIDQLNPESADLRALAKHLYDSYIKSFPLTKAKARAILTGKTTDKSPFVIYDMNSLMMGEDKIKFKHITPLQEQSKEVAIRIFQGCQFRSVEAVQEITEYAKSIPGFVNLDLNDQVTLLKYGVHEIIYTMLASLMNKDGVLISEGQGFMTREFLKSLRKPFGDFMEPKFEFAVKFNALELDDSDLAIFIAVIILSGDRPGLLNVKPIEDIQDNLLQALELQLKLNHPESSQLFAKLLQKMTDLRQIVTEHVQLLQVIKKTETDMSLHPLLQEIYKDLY

[3] = biological target: T3, Peroxisome proliferator-activated receptor delta (Homo sapiens, UniProt Q03181); test: Agonist activity at GAL4-tagged PPARdelta (unknown origin)
T3 sequence (Q03181 whole entry): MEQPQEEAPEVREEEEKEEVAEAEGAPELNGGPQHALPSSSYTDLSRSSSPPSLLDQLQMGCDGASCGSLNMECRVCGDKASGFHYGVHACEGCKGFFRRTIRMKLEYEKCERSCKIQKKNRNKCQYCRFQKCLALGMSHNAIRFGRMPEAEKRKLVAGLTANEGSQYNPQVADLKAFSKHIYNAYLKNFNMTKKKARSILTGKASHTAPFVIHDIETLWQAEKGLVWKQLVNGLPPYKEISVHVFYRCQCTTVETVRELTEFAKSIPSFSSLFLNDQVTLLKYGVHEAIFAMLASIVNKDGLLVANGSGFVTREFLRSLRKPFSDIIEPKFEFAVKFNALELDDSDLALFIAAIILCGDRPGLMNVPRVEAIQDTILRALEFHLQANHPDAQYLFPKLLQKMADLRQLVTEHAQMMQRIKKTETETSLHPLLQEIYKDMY

| Structure (SMILES) | EC50 [1] [µM] | EC50 [2] [µM] | EC50 [3] [µM] |
| --- | --- | --- | --- |
| Cc1ccc(-c2nc(C)c(C(=O)N[C@H]3CCCN(c4cccc(C(=O)O)c4)C3)s2)cc1 |  | 3.1 | 11 |
| Cc1c(C(=O)O)cccc1-c1ccc(/C=C2/SC(=O)N(CC(=O)Nc3ccc(F)cc3)C2=O)o1 | 0.00016 |  |  |
| Cc1nc(-c2cccc(C(F)(F)F)c2)sc1CNCc1ccc(OC(C)(C)C(=O)O)cc1 | 0.004 | 25 | 25 |
| CC[C@@H](Oc1cccc(CN(CCCOc2ccc(OC)cc2)c2nc3ccccc3o2)c1)C(=O)O [PEMAFIBRATE] |  | 1.7 | 10 |

Continued, values first:

| EC50 [1] [µM] | EC50 [2] [µM] | EC50 [3] [µM] | Structure (SMILES) |
| --- | --- | --- | --- |
| 0.0011 |  |  | CCCCCOC(=O)c1ccc(NC(=O)c2cccc(NC(=O)c3ccccc3C(=O)O)c2)cc1 |
|  | 6.6 | 13 | Cc1nc(-c2ccc(Cl)cc2)sc1C(=O)N[C@H]1CCCN(c2cccc(C(=O)O)c2)C1 |
| 0.0121 |  |  | CCOC(=O)C1=C(Nc2ccc(OCC)cc2)S/C(=C/c2ccc(OCC(=O)O)c(OC)c2)C1=O |

From ChEMBL document CHEMBL3352104, “Biological evaluation and structural insights for design of subtype-selective peroxisome proliferator activated receptor-α (PPAR-α) agonists” (Bioorg Med Chem Lett, 2015)
